From patent publication US20100092429A1, “Composition” (Danisco A/S, priority 2006, published 2010)
Where two headings read alike, the source gives them in different places.

Tests used:
[1] = system: Bifidobacterium lactis BI-04; assay type: cell-based; conditions: 1 w/v-% carbohydrate, 37° C.
[2] = system: Lactobacilli and S. thermophilus; experiment: Growth on single carbohydrates, summary for Lactobacilli and S. thermophilus; assay type: cell-based; conditions: summary in words of Tables 7 and 8

SMILES: OC[C@H]1O[C@H](O)[C@H](O)[C@@H](O)[C@@H]1O [Glucose, Alpha-D-Glucose]
- absorbance (OD 600 nm) ([1]; Table 3 test, time 0 h): 0.345
- absorbance (OD 600 nm) ([1]; Table 3 test, time 0.5 h): 0.3508
- absorbance (OD 600 nm) ([1]; Table 3 test, time 1 h): 0.3557
- absorbance (OD 600 nm) ([1]; Table 3 test, time 1.5 h): 0.3612
- absorbance (OD 600 nm) ([1]; Table 3 test, time 2 h): 0.366
- absorbance (OD 600 nm) ([1]; Table 3 test, time 2.5 h): 0.3717
- absorbance (OD 600 nm) ([1]; Table 3 test, time 3 h): 0.3794
- absorbance (OD 600 nm) ([1]; Table 3 test, time 3.5 h): 0.3884
- absorbance (OD 600 nm) ([1]; Table 3 test, time 4 h): 0.4001
- absorbance (OD 600 nm) ([1]; Table 3 test, time 4.5 h): 0.4149
- absorbance (OD 600 nm) ([1]; Table 3 test, time 5 h): 0.4363
- absorbance (OD 600 nm) ([1]; Table 3 test, time 5.5 h): 0.4576
- absorbance (OD 600 nm) ([1]; Table 3 test, time 6 h): 0.4843
- absorbance (OD 600 nm) ([1]; Table 3 test, time 6.5 h): 0.5156
- absorbance (OD 600 nm) ([1]; Table 3 test, time 7 h): 0.549
- absorbance (OD 600 nm) ([1]; Table 3 test, time 7.5 h): 0.5855
- absorbance (OD 600 nm) ([1]; Table 3 test, time 8 h): 0.6269
- absorbance (OD 600 nm) ([1]; Table 3 test, time 8.5 h): 0.6688
- absorbance (OD 600 nm) ([1]; Table 3 test, time 9 h): 0.7126
- absorbance (OD 600 nm) ([1]; Table 3 test, time 9.5 h): 0.7528
- absorbance (OD 600 nm) ([1]; Table 3 test, time 10 h): 0.7957
- absorbance (OD 600 nm) ([1]; Table 3 test, time 10.5 h): 0.8301
- absorbance (OD 600 nm) ([1]; Table 3 test, time 11 h): 0.8645
- absorbance (OD 600 nm) ([1]; Table 3 test, time 11.5 h): 0.897
- absorbance (OD 600 nm) ([1]; Table 3 test, time 12 h): 0.927
- absorbance (OD 600 nm) ([1]; Table 3 test, time 12.5 h): 0.9517
- absorbance (OD 600 nm) ([1]; Table 3 test, time 13 h): 0.9725
- absorbance (OD 600 nm) ([1]; Table 3 test, time 13.5 h): 0.9899
- absorbance (OD 600 nm) ([1]; Table 3 test, time 14 h): 1.0031
- absorbance (OD 600 nm) ([1]; Table 3 test, time 14.5 h): 1.0267
- absorbance (OD 600 nm) ([1]; Table 3 test, time 15 h): 1.0406
- absorbance (OD 600 nm) ([1]; Table 3 test, time 15.5 h): 1.05
- absorbance (OD 600 nm) ([1]; Table 3 test, time 16 h): 1.063
- absorbance (OD 600 nm) ([1]; Table 3 test, time 16.5 h): 1.0769
- absorbance (OD 600 nm) ([1]; Table 3 test, time 17 h): 1.0841
- absorbance (OD 600 nm) ([1]; Table 3 test, time 17.5 h): 1.1062
- absorbance (OD 600 nm) ([1]; Table 3 test, time 18 h): 1.1201
- absorbance (OD 600 nm) ([1]; Table 3 test, time 18.5 h): 1.1494
- absorbance (OD 600 nm) ([1]; Table 3 test, time 19 h): 1.1729
- absorbance (OD 600 nm) ([1]; Table 3 test, time 19.5 h): 1.1942
- absorbance (OD 600 nm) ([1]; Table 3 test, time 20 h): 1.2233
- absorbance (OD 600 nm) ([1]; Table 3 test, time 20.5 h): 1.2352
- absorbance (OD 600 nm) ([1]; Table 3 test, time 21 h): 1.27
- absorbance (OD 600 nm) ([1]; Table 3 test, time 21.5 h): 1.2882
- absorbance (OD 600 nm) ([1]; Table 3 test, time 22 h): 1.2935
- absorbance (OD 600 nm) ([1]; Table 3 test, time 22.5 h): 1.312
- absorbance (OD 600 nm) ([1]; Table 3 test, time 23 h): 1.3311
- absorbance (OD 600 nm) ([1]; Table 3 test, time 23.5 h): 1.3389
- absorbance (OD 600 nm) ([1]; Table 3 test, time 24 h): 1.3477
- absorbance (OD 600 nm) ([1]; Table 4 further test, time 0 h): 0.358
- absorbance (OD 600 nm) ([1]; Table 4 further test, time 0.5 h): 0.3615
- absorbance (OD 600 nm) ([1]; Table 4 further test, time 1 h): 0.3671
- absorbance (OD 600 nm) ([1]; Table 4 further test, time 1.5 h): 0.3772
- absorbance (OD 600 nm) ([1]; Table 4 further test, time 2 h): 0.3899
- absorbance (OD 600 nm) ([1]; Table 4 further test, time 2.5 h): 0.407
- absorbance (OD 600 nm) ([1]; Table 4 further test, time 3 h): 0.4301
- absorbance (OD 600 nm) ([1]; Table 4 further test, time 3.5 h): 0.4552
- absorbance (OD 600 nm) ([1]; Table 4 further test, time 4 h): 0.4845
- absorbance (OD 600 nm) ([1]; Table 4 further test, time 4.5 h): 0.5215
- absorbance (OD 600 nm) ([1]; Table 4 further test, time 5 h): 0.5712
- absorbance (OD 600 nm) ([1]; Table 4 further test, time 5.5 h): 0.6208
- absorbance (OD 600 nm) ([1]; Table 4 further test, time 6 h): 0.6769
- absorbance (OD 600 nm) ([1]; Table 4 further test, time 6.5 h): 0.7519
- absorbance (OD 600 nm) ([1]; Table 4 further test, time 7 h): 0.824
- absorbance (OD 600 nm) ([1]; Table 4 further test, time 7.5 h): 0.8944
- absorbance (OD 600 nm) ([1]; Table 4 further test, time 8 h): 0.9606
- absorbance (OD 600 nm) ([1]; Table 4 further test, time 8.5 h): 1.0277
- absorbance (OD 600 nm) ([1]; Table 4 further test, time 9 h): 1.0871
- absorbance (OD 600 nm) ([1]; Table 4 further test, time 9.5 h): 1.1209
- absorbance (OD 600 nm) ([1]; Table 4 further test, time 10 h): 1.1556
- absorbance (OD 600 nm) ([1]; Table 4 further test, time 10.5 h): 1.189
- absorbance (OD 600 nm) ([1]; Table 4 further test, time 11 h): 1.2217
- absorbance (OD 600 nm) ([1]; Table 4 further test, time 11.5 h): 1.2528
- absorbance (OD 600 nm) ([1]; Table 4 further test, time 12 h): 1.2826
- absorbance (OD 600 nm) ([1]; Table 4 further test, time 12.5 h): 1.3101
- absorbance (OD 600 nm) ([1]; Table 4 further test, time 13 h): 1.3368
- absorbance (OD 600 nm) ([1]; Table 4 further test, time 13.5 h): 1.3586
- absorbance (OD 600 nm) ([1]; Table 4 further test, time 14 h): 1.3745
- absorbance (OD 600 nm) ([1]; Table 4 further test, time 14.5 h): 1.388
- absorbance (OD 600 nm) ([1]; Table 4 further test, time 15 h): 1.4068
- absorbance (OD 600 nm) ([1]; Table 4 further test, time 15.5 h): 1.4166
- absorbance (OD 600 nm) ([1]; Table 4 further test, time 16 h): 1.43
- absorbance (OD 600 nm) ([1]; Table 4 further test, time 16.5 h): 1.4441
- absorbance (OD 600 nm) ([1]; Table 4 further test, time 17 h): 1.4486
- absorbance (OD 600 nm) ([1]; Table 4 further test, time 17.5 h): 1.4526
- absorbance (OD 600 nm) ([1]; Table 4 further test, time 18 h): 1.4654
- absorbance (OD 600 nm) ([1]; Table 4 further test, time 18.5 h): 1.4724
- absorbance (OD 600 nm) ([1]; Table 4 further test, time 19 h): 1.472
- absorbance (OD 600 nm) ([1]; Table 4 further test, time 19.5 h): 1.4796
- absorbance (OD 600 nm) ([1]; Table 4 further test, time 20 h): 1.4864
- absorbance (OD 600 nm) ([1]; Table 4 further test, time 20.5 h): 1.491
- absorbance (OD 600 nm) ([1]; Table 4 further test, time 21 h): 1.4946
- absorbance (OD 600 nm) ([1]; Table 4 further test, time 21.5 h): 1.4988
- absorbance (OD 600 nm) ([1]; Table 4 further test, time 22 h): 1.5015
- absorbance (OD 600 nm) ([1]; Table 4 further test, time 22.5 h): 1.5046
- absorbance (OD 600 nm) ([1]; Table 4 further test, time 23 h): 1.5061
- absorbance (OD 600 nm) ([1]; Table 4 further test, time 23.5 h): 1.5092
- absorbance (OD 600 nm) ([1]; Table 4 further test, time 24 h): 1.5092
- fermentation of the carbohydrate by Lactobacilli and S. thermophilus [2]: all these bacteria fermented with glucose
